Results as given in patent US20130310384A1, “Sulfonamide-Containing Compounds” (THE BRIGHAM AND WOMEN'S HOSPITAL, INC., priority 2010, published 2013).

System: not listed separately
Assay: Tolerability in the acute in vivo study (7 consecutive days, oral b.i.d.)
Settings: 100 mg/kg b.i.d. for 7 consecutive days, transgenic and nontransgenic mice
Description: [VIII] Embodiments can include any one or more of the following advantages. […] Selective inhibition of the cleavage of APP relative to that of the Notch receptor is believed to minimize certain unwanted side effects, such as lymphopoiesis and intestinal cell differentiation. […] This is an indication that there could be a minimization of side effects with these types of compounds
(§1) A preliminary acute efficacy study in 6-month-old female hAPPSL transgenic (Tg) mice (Rockenstein, E., Mallory, M., Mante, M., Sisk, A., and Masliah, E. (2001) J Neurosci Res 66, 573-582) was completed on the compound of Example 1. Mice were treated orally (b.i.d.) with two doses, 50 mg/kg (n=4) and 100 mg/kg (n=4) for 7 consecutive days. […] Human Aβ38, Aβ40 and Aβ42 levels were determined in the cortex, hippocampus, and cerebral spinal fluid (CSF) by an immunosorbent assay.

**Q.** Which “Toxicity in in vivo efficacy study” value does the source give for `CC[C@@H](c1ccccc1)N(Cc1ccc(C(=O)O)cc1)S(=O)(=O)c1ccc(Cl)cc1` [Example 1, (S)-4-((4-Chloro-N-(1-phenylpropyl)phenylsulfonamido)methyl)benzoic acid] here?
**A.** Its value is “no toxicity was observed”.

Same assay, conditions: hAPPSL Tg mice, oral b.i.d. 50 and 100 mg/kg, 7 consecutive days

**Q.** With `CC[C@@H](c1ccccc1)N(Cc1ccc(C(=O)O)cc1)S(=O)(=O)c1ccc(Cl)cc1` [Example 1, (S)-4-((4-Chloro-N-(1-phenylpropyl)phenylsulfonamido)methyl)benzoic acid] as the compound, how does the “Adverse side effects on any organ compared to vehicle controls” value read?
**A.** The value was “no obvious adverse side effects”.

**Q.** And the Mortality during treatment?
**A.** The Mortality during treatment was “No mice died”.

System: Human Aβ38, Aβ40 and Aβ42 levels
Assay: Acute in vivo efficacy study in hAPPSL transgenic mice (Aβ levels by immunosorbent assay)
Settings: 6-month-old female hAPPSL Tg mice, oral b.i.d. 50 and 100 mg/kg, 7 consecutive days; p<0.01
Protocol: as §1

**Q.** With `CC[C@@H](c1ccccc1)N(Cc1ccc(C(=O)O)cc1)S(=O)(=O)c1ccc(Cl)cc1` [Example 1, (S)-4-((4-Chloro-N-(1-phenylpropyl)phenylsulfonamido)methyl)benzoic acid] as the compound, how does the “Reduction of Aβ40 in the hippocampus” value read?
**A.** The value was “Statistically significant reductions”.

Same assay, conditions: 6-month-old female hAPPSL Tg mice, oral b.i.d. 50 and 100 mg/kg, 7 consecutive days; p<0.05

**Q.** For `CC[C@@H](c1ccccc1)N(Cc1ccc(C(=O)O)cc1)S(=O)(=O)c1ccc(Cl)cc1` [Example 1, (S)-4-((4-Chloro-N-(1-phenylpropyl)phenylsulfonamido)methyl)benzoic acid], which “Reduction of Aβ38 in the hippocampus” value is on record?
**A.** The value was “Statistically significant reductions”.

System: not given
Assay: not given
Settings: not given

**Q.** Which melting point does the source give for `COc1ccc(CN([C@@H](CO)c2ccccc2)S(=O)(=O)c2ccc(Cl)cc2)cc1C(=O)O` [Example 134, (R)-5-((4-Chloro-N-(2-hydroxy-1-phenylethyl)phenylsulfonamido)methyl)-2-methoxybenzoic acid] here?
**A.** The melting point was 79 to 80 °C.

**Q.** For `CC[C@@H](c1ccc(C(F)(F)F)cc1)N(Cc1ccc(C(=O)OC)cc1)S(=O)(=O)c1ccc(Cl)cc1` [Example 122, (S)-Methyl 4-((4-chloro-N-(1-(4-(trifluoromethyl)phenyl)propyl)phenylsulfonamido)methyl)benzoate], which melting point is on record?
**A.** Its melting point is 123 to 125 °C.

**Q.** With `CC[C@@H](c1ccccc1)N(Cc1ccc(C(=O)OC)cc1)S(=O)(=O)c1ccc(F)c(F)c1` [Example 115, (S)-Methyl 4-((3,4-difluoro-N-(1-phenylpropyl)phenylsulfonamido)methyl)benzoate] as the compound, how does the melting point read?
**A.** Its melting point is 103 to 105 °C.

**Q.** With `C[C@H](O)[C@H](CO)N(Cc1ccc(C(=O)O)cc1)S(=O)(=O)c1ccc(Cl)cc1` [Example 118, 4-((4-Chloro-N-((2S,3S)-1,3-dihydroxybutan-2-yl)phenylsulfonamido)methyl)benzoic acid] as the compound, how does the melting point read?
**A.** Its melting point is 182 to 184 °C.

**Q.** Which melting point does the source give for `CCC(c1ccccc1)N(Cc1ccc(C(=O)OC)cc1)S(=O)(=O)c1ccc(Cl)cc1` (stereo not drawn) [Example 25, Methyl 4-((4-chloro-N-(1-phenylpropyl)phenylsulfonamido)methyl)benzoate] here?
**A.** The melting point was 105 to 107 °C.

**Q.** Which melting point does the source give for `CCC(CC)N(Cc1ccc(C#N)nc1)S(=O)(=O)c1ccc(Cl)cc1` [Example 72] here?
**A.** Its melting point is 108 to 110 °C.

**Q.** With `CC[C@@H](c1ccc(C#N)cc1)N(Cc1ccc(C(=O)O)cc1)S(=O)(=O)c1ccc(Cl)cc1` [Example 103, (S)-4-((4-Chloro-N-(1-(4-cyanophenyl)propyl)phenylsulfonamido)methyl)benzoic acid] as the compound, how does the melting point read?
**A.** The melting point was 132 to 133 °C.

**Q.** Which melting point does the source give for `O=C(O)c1ccc(CN([C@@H](CO)c2ccccc2)S(=O)(=O)c2ccc(Cl)cc2)cc1` [Example 51, (R)-4-((4-Chloro-N-(2-hydroxy-1-phenylethyl)phenylsulfonamido)methyl)benzoic acid] here?
**A.** Its melting point is 85 to 87 °C.

**Q.** For `CC[C@@H](c1ccccc1)N(Cc1ccc(C(=O)OC)cc1)S(=O)(=O)c1ccc(Cl)cc1` [Example 3, (S)-Methyl 4-((4-chloro-N-(1-phenylpropyl)phenylsulfonamido)methyl)benzoate], which melting point is on record?
**A.** Its melting point is 108 to 110 °C.

**Q.** Which melting point does the source give for `CC[C@@H](c1ccc(C#N)cc1)N(Cc1ccc(C#N)cc1)S(=O)(=O)c1ccc(Cl)cc1` [Example 84, (S)-4-Chloro-N-(4-cyanobenzyl)-N-(1-(4-cyanophenyl)propyl)benzenesulfonamide] here?
**A.** Its melting point is 120 to 121 °C.

**Q.** For `C[C@H](O)[C@H](CO)N(Cc1ccc(C#N)cc1)S(=O)(=O)c1ccc(Cl)cc1` [Example 132, 4-Chloro-N-(4-cyanobenzyl)-N-((2S,3S)-1,3-dihydroxybutan-2-yl)-benzene-sulfonamide], which melting point is on record?
**A.** The melting point was 124 to 126 °C.

**Q.** For `CCC(CC)N(Cc1ccc(C(=O)O)cn1)S(=O)(=O)c1ccc(F)cc1` [Example 37, 6-((4-Fluoro-N-(pentan-3-yl)phenylsulfonamido)methyl)nicotinic acid], which melting point is on record?
**A.** Its melting point is 145 to 147 °C.

**Q.** For `CCC(CC)N(Cc1ccc(C(=O)OC)cc1)S(=O)(=O)c1ccc(Cl)cc1` [Example 40, Methyl 4-((4-chloro-N-(pentan-3-yl)phenylsulfonamido)methyl)benzoate], which melting point is on record?
**A.** Its melting point is 95 to 97 °C.

**Q.** Which melting point does the source give for `CCC(CC)N(Cc1ccc(C#N)nc1)S(=O)(=O)c1ccc(F)cc1` [Example 73, N-((6-Cyanopyridin-3-yl)methyl)-4-fluoro-N-(pentan-3-yl)benzenesulfonamide] here?
**A.** The melting point was 118 to 120 °C.

**Q.** With `CCC(c1ccc(Cl)nc1)N(Cc1ccc(C(=O)O)cc1)S(=O)(=O)c1ccc(Cl)cc1` (stereo not drawn) [Example 89, 4-((4-Chloro-N-(1-(6-chloropyridin-3-yl)propyl)phenylsulfonamido)methyl)benzoic acid] as the compound, how does the melting point read?
**A.** The melting point was 111 to 113 °C.

**Q.** For `CC[C@@H](c1ccccc1)N(Cc1cccc(C(=O)O)c1)S(=O)(=O)c1ccc(Cl)cc1` [Example 59, (S)-3-((4-Chloro-N-(1-phenylpropyl)phenylsulfonamido)methyl)benzoic acid], which melting point is on record?
**A.** The melting point was 65 to 67 °C.
